Read-outs that look alike come from different tables or passages of the source.
Key:
[1] = target: T1, Pim-1 stably transfected into the U2OS human osteogenic sarcoma line (Homo sapiens, UniProt P11309); test: Pim cell assay, phospho-BAD normalized against total BAD, U2OS stably transfected with Pim-1; assay type: cell-based; conditions: read-out: Pim1_Cell_IC50
T1 construct: expressed in transfected cells; host or cells: U2OS human osteogenic sarcoma line
How it was run: (§1)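 Read-out is phospho-BAD relative to total BAD, by MSD electrochemiluminescence on lysates, expressed as % phosphoprotein = (2×phospho)/(phospho+total)×100. Engineered U2OS lines carrying stably transfected Pim-1 or Pim-2 received 10-point compound dilutions at 0.3% final DMSO after overnight culture at 37 °C; DMSO-only wells served as high control.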

[2] = target: T2, Pim-2 stably transfected into the U2OS human osteogenic sarcoma line (Homo sapiens, UniProt Q9P1W9); test: Pim cell assay, phospho-BAD normalized against total BAD, U2OS stably transfected with Pim-2; assay type: cell-based; conditions: read-out: Pim2_Cell_IC50; also: high dose 31.6 µM
T2 construct: expressed in transfected cells; host or cells: U2OS human osteogenic sarcoma line
How it was run: as §1

[3] = target: T3, full length recombinant Pim-3 protein (Homo sapiens, UniProt Q86V86); test: Pim-3 enzyme assay (HTRF, phosphorylation of biotinylated-BAD (S112) peptide); assay type: biochemical; conditions: read-out: Pim3 IC50
T3 construct: by full length recombinant Pim-1, Pim-2, or Pim-3 protein; purchased Millipore (UK)
How it was run: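 HTRF read-out, streptavidin-APC plus Eu-labelled anti-phospho-BAD (S112) antibody, measures BAD peptide phosphorylation by full-length recombinant Pim-3. Buffer: 60 mM Hepes pH 7.0, 2 mM DTT, 0.05% BSA; EDTA (3 mM) stop. Percent of control per well, IC50 by 4-parameter logistic fit.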

[4] = target: T4, full length recombinant Pim-1 protein (Homo sapiens, UniProt P11309); test: Pim-1 enzyme assay (HTRF, phosphorylation of biotinylated-BAD (S112) peptide); assay type: biochemical; conditions: enzyme assay, Pim-1; read-out: Pim_1_IC50
T4 construct: by full length recombinant Pim-1, Pim-2, or Pim-3 protein; hexahistidine tag followed by a thrombin cleavage site (N); made in house; host or cells: Sf9 (baculovirus) or E. coli (pET28)
How it was run: (§2)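 Recombinant full-length Pim-1 or Pim-2 was incubated with biotinylated BAD (S112) peptide in pH 7.0 Hepes buffer with BSA and DTT. After an EDTA stop, phosphopeptide was quantified by time-resolved FRET between a europium antibody and streptavidin-APC, and IC50 values came from 4-parameter logistic curves.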

[5] = target: T5, full length recombinant Pim-2 protein (Homo sapiens, UniProt Q9P1W9); test: Pim-2 enzyme assay (HTRF, phosphorylation of biotinylated-BAD (S112) peptide); assay type: biochemical; conditions: enzyme assay, Pim-2; read-out: Pim2_IC50
T5 construct: by full length recombinant Pim-1, Pim-2, or Pim-3 protein; hexahistidine tag followed by a thrombin cleavage site (N); made in house; host or cells: Sf9 (baculovirus) or E. coli (pET28)
How it was run: as §2

[6] = U2OS cells stably transfected with Pim-1, phospho-BAD, high dose […]
[7] = U2OS cells stably transfected with Pim-2, phospho-BAD, high dose […]

T1 sequence (P11309 whole entry): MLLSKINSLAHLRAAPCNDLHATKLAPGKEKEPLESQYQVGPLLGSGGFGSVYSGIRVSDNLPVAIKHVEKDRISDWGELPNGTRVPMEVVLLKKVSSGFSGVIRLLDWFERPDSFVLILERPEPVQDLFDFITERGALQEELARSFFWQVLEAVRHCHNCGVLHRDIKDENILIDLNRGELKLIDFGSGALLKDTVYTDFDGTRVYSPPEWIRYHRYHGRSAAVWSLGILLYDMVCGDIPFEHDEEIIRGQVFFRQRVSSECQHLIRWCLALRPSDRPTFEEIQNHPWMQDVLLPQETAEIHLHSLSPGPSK
T4 sequence (P11309 whole entry): as above
T2 sequence (Q9P1W9 whole entry): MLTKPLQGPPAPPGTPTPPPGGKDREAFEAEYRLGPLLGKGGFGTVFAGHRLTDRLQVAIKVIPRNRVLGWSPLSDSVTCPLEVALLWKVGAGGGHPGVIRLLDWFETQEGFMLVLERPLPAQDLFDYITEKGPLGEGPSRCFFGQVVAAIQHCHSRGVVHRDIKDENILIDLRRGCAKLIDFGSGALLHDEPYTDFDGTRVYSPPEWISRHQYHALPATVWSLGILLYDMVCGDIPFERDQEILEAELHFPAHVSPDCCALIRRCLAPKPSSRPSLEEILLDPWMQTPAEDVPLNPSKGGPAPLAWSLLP
T5 sequence (Q9P1W9 whole entry): as above

Row | SMILES | IC50 [1, 6] | IC50 [2, 7] | IC50 [3] | IC50 [4] | IC50 [5] | IC50 [1] | IC50 [2]
1 | NC1CCN(c2cncc(-c3n[nH]c4ccc(Br)cc34)n2)CC1 [Example 1, 1-(6-(5-bromo-1H-indazol-3-yl)pyrazin-2-yl)piperidin-4-amine] | 788 nM | 8730 nM | 11 nM | 31 nM | 23 nM |  | 
2 | NC1CCN(c2cncc(-c3n[nH]c4ccc(-c5cc(C(=O)NC6CC6)ccc5F)cc34)n2)CC1 [Example 3, 3-(3-(6-(4-aminopiperidin-1-yl)pyrazin-2-yl)-1H-indazol-5-yl)-N-cyclopropyl-4-fluorobenzamide] | 3680 nM | 7390 nM | 9 nM | 8 nM | 13 nM |  | 
3 | COc1cccc(-c2ccc3[nH]nc(-c4cncc(N5CCC(N)CC5)n4)c3c2)c1F [Example 4, 1-(6-(5-(2-fluoro-3-methoxyphenyl)-1H-indazol-3-yl)pyrazin-2-yl)piperidin-4-amine] | 234 nM | > 31600 nM | 4 nM | 2 nM | 35 nM |  | 
4 | NC1CCN(c2cncc(-c3n[nH]c4ccc(-c5cccc(F)c5)cc34)n2)CC1 [Example 7, 1-(6-(5-(3-Fluorophenyl)-1H-indazol-3-yl)pyrazin-2-yl)piperidin-4-amine] | 748 nM | > 31600 nM | 3 nM | 4 nM | 25 nM |  | 
5 | NC1CCN(c2cncc(-c3n[nH]c4ccc(N5CCCC5=O)cc34)n2)CC1 [Example 8, 1-(3-(6-(4-Aminopiperidin-1-yl)pyrazin-2-yl)-1H-indazol-5-yl)pyrrolidin-2-one] | 2440 nM | > 31600 nM | 6 nM | 12 nM | 41 nM |  | 
6 | COc1cc(-c2ccc3[nH]nc(-c4cncc(N5CCC(N)CC5)n4)c3c2)nc(OC)n1 [Example 9, 1-(6-(5-(2,6-dimethoxypyrimidin-4-yl)-1H-indazol-3-yl)pyrazin-2-yl)piperidin-4-amine] | 437 nM | > 31600 nM | 1 nM | 4 nM | 96 nM |  | 
7 | CN(c1cncc(-c2n[nH]c3ccc(-c4c(F)cccc4F)cc23)n1)C1CCNCC1 [Example 17, 6-(5-(2,6-Difluorophenyl)-1H-indazol-3-yl)-N-methyl-N-(piperidin-4-yl)pyrazin-2-amine] | 424 nM | 11000 nM | 4 nM | 5 nM | 43 nM |  | 
8 | NC1CCCN(c2cncc(-c3c[nH]c4ccc(-c5c(F)cccc5F)cc34)n2)C1 (centres unmarked) [Example 21, 1-(6-(5-(2,6-difluorophenyl)-1H-indol-3-yl)pyrazin-2-yl)piperidin-3-amine] | 1170 nM | > 31600 nM | 5 nM | 3 nM | 98 nM |  | 
9 | NC1CCN(c2cncc(-c3c[nH]c4ccc(-c5c(F)cccc5F)cc34)n2)CC1 [Example 22, 1-(6-(5-(2,6-difluorophenyl)-1H-indol-3-yl)pyrazin-2-yl)piperidin-4-amine] | 439 nM | 7110 nM | 5 nM | 2 nM | 18 nM |  | 
10 | Fc1cccc(F)c1-c1ccc2[nH]cc(-c3cncc(O[C@@H]4CCCNC4)n3)c2c1 [Example 23, (R)-5-(2,6-difluorophenyl)-3-(6-(piperidin-3-yloxy)pyrazin-2-yl)-1H-indole] | 228 nM | 5040 nM | 4 nM | 2 nM | 9 nM |  | 
11 | NC1CCN(c2cncc(-c3n[nH]c4ccc(-c5ccnc(N6CCOCC6)n5)cc34)n2)CC1 [Example 98, 1-(6-(5-(2-(4-morpholinyl)-4-pyrimidinyl)-1H-indazol-3-yl)-2-pyrazinyl)-4-piperidinamine] |  | > 31600 nM | 2 nM | 1 nM | 72 nM |  | 
12 | c1cc2[nH]nc(-c3cncc(O[C@@H]4CCCNC4)n3)c2cc1-c1cncc(C2CC2)n1 [Example 118, 5-(6-cyclopropyl-2-pyrazinyl)-3-(6-((3R)-3-piperidinyloxy)-2-pyrazinyl)-1H-indazole] | 41 nM | 5750 nM | 1 nM |  | 24 nM |  | 
13 | CN1CCOc2cc(-c3ccc4[nH]nc(-c5cncc(O[C@@H]6CCCNC6)n5)c4c3)ccc21 [Example 123, 4-methyl-7-(3-(6-((3R)-3-piperidinyloxy)-2-pyrazinyl)-1H-indazol-5-yl)-3,4-dihydro-2H-1,4-benzoxazine] |  | 3520 nM | 6 nM | 1 nM | 10 nM |  | 
14 | c1cc2c(cc1-c1ccc3[nH]nc(-c4cncc(O[C@@H]5CCCNC5)n4)c3c1)OCCO2 [Example 140, 5-(2,3-dihydro-1,4-benzodioxin-6-yl)-3-(6-((3R)-3-piperidinyloxy)-2-pyrazinyl)-1H-indazole] |  | 7780 nM | 6 nM | 2 nM | 19 nM |  | 
15 | C1=C(c2ccc3[nH]nc(-c4cncc(O[C@@H]5CCCNC5)n4)c3c2)COCC1 [Example 154, 5-(5,6-dihydro-2H-pyran-3-yl)-3-(6-((3R)-3-piperidinyloxy)-2-pyrazinyl)-1H-indazole] | 772 nM |  | 16 nM | 15 nM | 71 nM |  | 

Now from value to molecule:

Row | IC50 [1, 6] | IC50 [2, 7] | IC50 [3] | IC50 [4] | IC50 [5] | IC50 [1] | IC50 [2] | SMILES
16 | 1740 nM |  | 12 nM | 12 nM | 32 nM |  |  | O=C(NC1CC1)c1ccnc(-c2ccc3[nH]nc(-c4cncc(O[C@@H]5CCCNC5)n4)c3c2)c1 [Example 157, N-cyclopropyl-2-(3-(6-((3R)-3-piperidinyloxy)-2-pyrazinyl)-1H-indazol-5-yl)-4-pyridinecarboxamide]
17 | 750 nM |  | 1 nM | 2 nM | 71 nM |  |  | O=C(NC1CC1)c1cncc(-c2ccc3[nH]nc(-c4cncc(O[C@@H]5CCCNC5)n4)c3c2)c1 [Example 159, N-cyclopropyl-5-(3-(6-((3R)-3-piperidinyloxy)-2-pyrazinyl)-1H-indazol-5-yl)-3-pyridinecarboxamide]
18 | 108 nM |  | 12 nM | 5 nM | 24 nM |  |  | COc1cc(-c2ccc3[nH]nc(-c4cncc(O[C@@H]5CCCNC5)n4)c3c2)ccn1 [Example 160, 5-(2-methoxy-4-pyridinyl)-3-(6-((3R)-3-piperidinyloxy)-2-pyrazinyl)-1H-indazole]
19 | 2410 nM |  | 92 nM | 69 nM | 1640 nM |  |  | Fc1cccc(F)c1-c1ccc2[nH]nc(-c3cncc(N4CCOCC4)n3)c2c1 [Example 169, 5-(2,6-difluorophenyl)-3-(6-(4-morpholinyl)-2-pyrazinyl)-1H-indazole]
20 | 146 nM |  | 6 nM | 4 nM | 19 nM |  |  | Fc1cccc(F)c1-c1ccc2[nH]nc(-c3cncc(O[C@H]4CNC[C@@H](F)C4)n3)c2c1 [Example 196, 5-(2,6-difluorophenyl)-3-(6-(((3R,5S)-5-fluoro-3-piperidinyl)oxy)-2-pyrazinyl)-1H-indazole]
21 | 8850 nM |  | 51 nM | 21 nM | 414 nM |  |  | Fc1cccc(F)c1-c1ccc2[nH]cc(-c3cncc(NC4CCCCC4)n3)c2c1 [Example 202, N-cyclohexyl-6-(5-(2,6-difluorophenyl)-1H-indol-3-yl)-2-pyrazinamine]
22 | 3050 nM |  | 18 nM | 8 nM | 184 nM |  |  | N[C@@H]1CCCN(c2cncc(-c3c[nH]c4ccc(-c5c(F)cccc5F)cc34)n2)C1 [Example 203, (3R)-1-(6-(5-(2,6-difluorophenyl)-1H-indol-3-yl)-2-pyrazinyl)-3-piperidinamine]
23 |  |  | 98 nM | 80 nM | 987 nM | 2230 nM |  | O=C1CN(c2cncc(-c3c[nH]c4ccc(-c5c(F)cccc5F)cc34)n2)CCN1 [Example 204, 4-(6-(5-(2,6-difluorophenyl)-1H-indol-3-yl)-2-pyrazinyl)-2-piperazinone]
24 |  |  | 28 nM | 47 nM | 65 nM |  | > 15800 nM | NC1CCN(c2cncc(-c3c[nH]c4ccc([N+](=O)[O-])cc34)n2)CC1 [Example 232, 1-(6-(5-nitro-1H-indol-3-yl)pyrazin-2-yl)piperidin-4-amine]
25 |  |  | 7 nM | 5 nM | 44 nM |  | 5820 nM | COC(=O)c1ccc2[nH]cc(-c3cncc(N4CCC(N)CC4)n3)c2c1 [Example 236, methyl 3-(6-(4-aminopiperidin-1-yl)pyrazin-2-yl)-1H-indole-5-carboxylate]
